Consider 1 compound from patent US10041937B2, “Macrophage identification agent, and identification method, sorting method, evaluation method, screening method and kit using the macrophage identifier agent” (CANON KABUSHIKI KAISHA, priority 2013, dated 2018).

SMILES strings stand for the structures.

For assay [1], the system named is M1 macrophages and M2 macrophages differentiated from THP-1 cells. Description: Identification of macrophage subtypes differentiated from human cell line THP-1. In kind it is cell-based. How it is done:
The fluorescent signals derived from the compounds (3), (4), (6), (7), (9), (11) to (13), (15), (17), (19) to (26), (28), (30) to (33), (35), (36), (38), (42) to (45), (48) to (62), (65), (67), (74) to (76), (82), (83) and (85) and the comparative compounds (1) and (2) were measured in channels suitable to the respective compounds. Histograms were prepared by plotting fluorescence intensities obtained in the respective channels on the abscissa and plotting the numbers of cells at each fluorescence intensity on the ordinate. A difference between a fluorescence intensity (FM1) at a peak top of the histogram of the M1 macrophage and a fluorescence intensity (FM2) at a peak top of the histogram of the M2 macrophage is divided by a sum of a peak width (WM1) of the histogram of the M1 macrophage and a peak width (WM2) of the histogram of the M2 macrophage, so as to obtain a resolution R, which was used as an index of the identification ability for a subtype (see the following expression (1)). Resolution R=|FM1−FM2|/(WM1+WM2) Expression (1)
Based on the thus obtained values of the resolution R, the identification abilities for the subtypes of the compounds (3), (4), (6), (7), (9), (11) to (13), (15), (17), (19) to (26), (28), (30) to (33), (35), (36), (38), (42) to (45), (48) to (62), (65), (67), (74) to (76), (82), (83) and (85) and the comparative compounds (1) and (2) were evaluated as any of A to C according to the following criteria, and if the resolution R was 0.15 or more, the compound was determined to be good in the subtype identification.
The subtypes were identified by using the compound (1) in the same manner as in Example 1 except that the macrophage subtypes differentiated from the mouse bone marrow cells were changed to macrophage subtypes differentiated from a cell line established from human acute monocytic leukemia.
The culture of subtypes was performed with reference to NPL 10. Specifically, THP-1 cells purchased from JCRB Cell Bank of National Institute of Biomedical Innovation, that is, a cell line established from human acute monocytic leukemia, were subcultured several times, and the resultant cells were dispersed to a concentration of 5.0×10^5/mL in an RPMI1640 containing 10% FBS and 1% P/S, and 5.0×10^6 cells were seeded in a 100 mm dish. The monocytes were differentiated into macrophages by incubating the resultant in the presence of 5% CO2 at 37° C. for 2 days with 500 ng of PMA added thereto. After exchanging the medium, by adding 200 ng of interferon-γ and 1 μg of polyliposaccharide (both manufactured by Pepro Tech) to the medium, the cells were differentiated to the subtype M1. Besides, by adding 200 ng of IL-4 and IL-13, the cells were differentiated to the subtype M2. After incubation performed in the presence of 5% CO2 at 37° C. for 24 hours, the resultant was rinsed with PBS, and PBS containing 0.25% trypsin and 1 mM EDTA (ethylenediaminetetraacetic acid) was used for collecting, from the dish, the macrophages having been differentiated to the subtypes M1 and M2.
Specifically, fluorescent signals derived from the compounds (1) (3) (4) (12) and (15) were measured by using the channels which are appropriate for each of the compounds and the identification abilities for the subtypes of the compounds were evaluated based on the values of the resolution R.

Assay [2] has as its system mixture of the M1 macrophages and the M2 macrophages. Description: Sorting of subtypes from a mixture of M1 and M2 macrophages with an FACS apparatus. To be noted: compound 1 μM. In kind it is cell-based, mouse.
Assay [3] deals with M1 macrophages and M2 macrophages differentiated from RAW264.7 cells. Description: Identification of macrophage subtypes differentiated from mouse cell line RAW264.7. To be noted: RAW264.7 derived M1 and M2. In kind it is cell-based. How it is done: The subtypes were identified by using the compound (1) in the same manner as in Example 1 except that the macrophage subtypes differentiated from the mouse bone marrow cells were changed to macrophage subtypes differentiated from a cell line established from mouse monocytic leukemia.
The culture of subtypes was performed with reference to NPL 9. Specifically, RAW264.7 cells purchased from American Type Culture Collection, that is, a cell line established from mouse monocytic leukemia, were subcultured several times, and the resultant cells were dispersed to a concentration of 3.3×10^4/mL in a D-MEM containing 10% FBS, 1% P/S and 1% MEM-NEAA, and 3.3×10^5 cells were seeded in a 100 mm dish. The cells were grown by incubation performed in the presence of 5% CO2 at 37° C. After 2 to 4 days, it was confirmed that an area of about to 70% of the bottom of the dish had been covered by the cells, the medium was then exchanged, and by adding 200 ng of interferon-γ and 1 μg of polyliposaccharide (both manufactured by Pepro Tech) to the medium, the cells were differentiated to the subtype M1. Besides, by adding 100 ng of IL-4, the cells were differentiated to the subtype M2. […]
A histogram was prepared by plotting fluorescence intensity obtained in the FITC channel on the abscissa and plotting the number of cells at each fluorescence intensity on the ordinate, which is shown in FIG. 9.

Take `CCOC(=O)CCN1C(=O)/C(=C\c2ccc3c(c2)C2CCCC2N3CC)SC1=S` (centres unmarked) [compound (1)]: the “Resolution ratio R” value in assay [1] (M1 vs M2 macrophages differentiated from THP-1 cells, channel listed per compound (Table 6)) was found to be 0.409. For the same compound, the “Evaluation of macrophage subtype identification” value in assay [1] (M1 vs M2 macrophages differentiated from THP-1 cells, class based on resolution R (Table 6)) was “B (the compound is good in the subtype identification (namely, the resolution R is 0.15 or more and less than 0.5))”. In addition, the “Peak position of M1 macrophage” value in assay [1] (THP-1-derived M1 macrophages, fluorescence intensity peak by flow cytometry in the channel listed per compound (Table 6)) was 58.1. Moreover, in assay [1] (THP-1-derived M2 macrophages, fluorescence intensity peak by flow cytometry in the channel listed per compound (Table 6)), the “Peak position of M2 macrophage” value stood at 33.4. The Selectivity result in assay [1] (subtype strongly stained, THP-1-derived macrophages (Table 6)) is on record as “M1”. For the same compound, the “sorting of identified M1 and M2 macrophages” value in assay [2] (FACS apparatus) is listed as “could be each sorted with an FACS apparatus”. For the same compound, the “subtype more strongly stained” value in assay [2] (mixed M1 and M2 macrophages) is recorded as “stain the M1 macrophages more strongly than the M2 macrophages”; in assay [3] it was “the M1 macrophages were stained more strongly than the M2 macrophages”.
